Test results taken from article PMC9784957 (Viruses, 2022).
Where two headings read alike, the source gives them in different places.

Key:
HXB2 pseudotyped virus = test: microbe, parasite or virus in culture; assay type: cell-based, HIV-1; conditions: for Increase in IC50 (loss of activity) when compound added 2 h after virus: HXB2 pseudotyped virus
[1] = Resazurin cell viability assay run concomitantly with the fusion assays; assay type: cell-based; conditions: human, TZM-bl cells, approximated
[2] = test system: HIV-1 HXB2 Env pseudotyped virus; test: Virus-cell fusion (infectivity) assay, HXB2 Env pseudotyped virus, TZM-bl cells; assay type: cell-based; conditions: for EC50 / EC90 / IC50: Human immunodeficiency virus 1, HXB2, TZM-bl; for EC50: read-out: Antiviral Activity EC50; for EC90: read-out: Antiviral Activity EC90; for IC50: read-out: IC50 HXB2
[3] = test system: gp41 hydrophobic pocket metallopeptide with Lys-574 replaced with norleucine; assay type: binding, HIV-1; conditions: Nle-574 receptor vs Lys-574 receptor
[4] = test system: HXB2 Env mediated cell-cell fusion; set-up: method as in earlier work; conditions: cell-cell fusion assay; cited from earlier work
[5] = test system: HXB2 Env mediated cell-cell fusion; test: Cell-cell fusion assay, HL2/3 effector cells and TZM-bl target cells; assay type: cell-based, HIV-1; conditions: for Potency enhancement against cell-cell fusion upon STP esterification: ester vs acid; for IC50: Human immunodeficiency virus 1, HXB2, read-out: IC50 (CCF)
[6] = test system: HIV-1 HXB2 Env pseudotyped virus; set-up: method as in earlier work; conditions: virus-cell fusion assay using lab adapted strain HXB2; cited from earlier work
[7] = biological target: T1, gp41 hydrophobic pocket (FeII(env2.0)3) (Human immunodeficiency virus type 1 group M subtype B, UniProt P04578); conditions: equilibrium binding to the HP; cited from earlier work
T1 sequence (P04578 565-584): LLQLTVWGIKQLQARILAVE

[8] = biological target: T1, gp41 hydrophobic pocket (FeII(env2.0)3); test: Fluorescence intensity binding affinity assay, displacement of C18FL from FeII; set-up: species or system HIV-1; conditions: for Increase in affinity for the HP of STP ester compared to acid, change in IC50: ester vs acid
[9] = test system: HIV-1 JRFL Env pseudotyped virus; test: Virus-cell fusion assay, JRFL Env pseudotyped virus; assay type: cell-based
TZM-bl cells = test: Resazurin cell viability assay run concomitantly with the fusion assays; assay type: cell-based; conditions: at 100 µM, Ampho-MLV Env experiment
[10] = test system: Ampho-MLV Env pseudotyped virus; test: Virus-cell fusion assay, Ampho-MLV Env pseudotyped virus; assay type: cell-based
Aqueous solubility = assay type: physicochemical
[11] = in antiviral assay, read-out: Antiviral Activity CC50
[12] = in cell-cell fusion assay, read-out: Inhibition of Cell-Cell Fusion CC50
[13] = ester vs acid, pseudoviral infectivity

SMILES | CC50 [1, 11] | CC50 [1, 12] | Increase in IC50 (loss of activity) when compound added 2 h after virus (HXB2 pseudotyped virus) | EC50 [2] | EC90 [2] | Improvement of antiviral activity (EC50) by STP esterification [2, 13] | Increase in affinity for the HP of STP ester compared to acid, change in IC50 [8] | Ki [8] | other results
c1cc(CN2CCCNCCNCCCNCC2)ccc1CN1CCCNCCNCCCNCC1 [AMD3100, reference compound] |  |  |  |  |  |  |  |  | Residual efficacy when added 2 h after virus (HXB2 pseudotyped virus; at 50X EC50): 5%
COC(=O)c1cccc(Cn2ccc3ccc(-c4ccc5ccn(Cc6cccc(C(=O)Oc7c(F)c(F)c(S(=O)(=O)O)c(F)c7F)c6)c5c4)cc32)c1 [Compound 1-STP] | 20 ± 3 µM | > 10 µM | 14 fold | 0.3 ± 0.2 µM | 2.9 ± 1.6 µM | 10 fold |  |  | EC90 difference, STP ester compared to acid [2, 13]: 14 fold; Increase in KI on replacing Lys-574 with norleucine [3]: 6 fold
COC(=O)c1cccc(Cn2ccc3ccc(-c4ccc5ccn(Cc6cccc(C(=O)O)c6)c5c4)cc32)c1 [Compound 1] | 22 ± 3 µM | > 10 µM | 2 fold | 3.2 ± 1.6 µM | 17 ± 13 µM | greater than 10 fold | no change |  | IC50 [4]: 0.4 µM; Potency enhancement against cell-cell fusion upon STP esterification [5]: about 2 fold; IC50 [6]: 3 µM; Ki [7]: 1 ± 0.5 µM; Increase in KI on replacing Lys-574 with norleucine [3]: 5 fold
Cn1ncc2ccc(-c3ccc4cnn(Cc5ccc(F)c(C(=O)Oc6c(F)c(F)c(S(=O)(=O)O)c(F)c6F)c5)c4c3)cc21 [Compound 2-STP] | ≥ 100 µM | ≥ 200 µM | 14 fold | 5 ± 4 µM | 59 ± 22 µM | 7 fold | 3 fold | ~10 µM | Reduction in efficacy against JRFL Env compared to HXB2 Env [9]: 2 fold; Cytotoxicity (TZM-bl cells): 40%; Increase in IC50 on Nle-574 substitution [3]: 2.2 fold; Activity against Ampho-MLV Env pseudotyped particles [10]: artifact of the 40% cytotoxicity at 100 µM
Cn1ncc2ccc(-c3ccc4cnn(Cc5ccc(F)c(C(=O)O)c5)c4c3)cc21 [Compound 2] | ≥ 356 µM | ≥ 113 µM | 2 fold | 35 ± 7 µM | 800 ± 190 µM | 7 fold | 3 fold | 25 ± 5 µM | IC50 [5]: ≥ 50 µM; Potency enhancement against cell-cell fusion upon STP esterification [5]: 7 fold; IC50 [2]: 35 µM
CCOC(=O)c1cc(O)n(-c2ccc(C(=O)Oc3c(F)c(F)c(S(=O)(=O)O)c(F)c3F)cc2)n1 [Compound 3-STP] | > 40 µM | > 40 µM |  | 9 ± 2 µM | 44 ± 15 µM | > 10 fold | 10 fold | ~20 µM | Reduction in efficacy against JRFL Env compared to HXB2 Env [9]: 4 fold; activity at 40 µM (HXB2 pseudotyped virus; Human immunodeficiency virus 1, HXB2, 2 h, read-out: Residual activity when added after 2 h): 12%; Activity against Ampho-MLV Env pseudotyped particles [10]: no activity
CCOC(=O)c1cc(O)n(-c2ccc(C(=O)O)cc2)n1 [Compound 3] | > 100 µM | > 100 µM |  | > 100 µM |  | greater than 10 fold | 10 fold | 177 ± 12 µM | IC50 [5]: > 100 µM; IC50 [2]: > 100 µM; IC50 HXB2 ([2]; virus-cell fusion assay using lab adapted strain HXB2): No measurable antiviral potency; Aqueous solubility (Aqueous solubility): high aqueous solubility
Cc1ccnc2c1NC(=O)c1cccnc1N2C1CC1 [nevirapine, reference compound] |  |  | 2.7 fold |  |  |  |  |  | 
